In US20140155376A1, “PYRROLOPYRAZINE KINASE INHIBITORS” (Hoffmann-La Roche Inc., priority 2010, published 2014):
Like-named read-outs stand apart in the source and are kept apart here.

Target: T1, JAK3 (recombinant human kinase domain; h-jak3(810-1124)) (Homo sapiens, UniProt P52333)
T1 construct: h-jak3(810- 1124)-sf9-c; made in house; host or cells: Sf9 insect cells
Assay: Determination of IC50 of Janus Kinase (JAK) inhibition: JAK3, radioactive end-point assay with 33P-ATP
Format: biochemical

[1] = JAK3 kinase domain, ATP 1.5 uM, peptide 50 uM, 20 minutes, room temperature, 10% DMSO, read-out: Ic50 h-jak3(810-1124)-sf9-c:no additive

T1 sequence (P52333 810-1124): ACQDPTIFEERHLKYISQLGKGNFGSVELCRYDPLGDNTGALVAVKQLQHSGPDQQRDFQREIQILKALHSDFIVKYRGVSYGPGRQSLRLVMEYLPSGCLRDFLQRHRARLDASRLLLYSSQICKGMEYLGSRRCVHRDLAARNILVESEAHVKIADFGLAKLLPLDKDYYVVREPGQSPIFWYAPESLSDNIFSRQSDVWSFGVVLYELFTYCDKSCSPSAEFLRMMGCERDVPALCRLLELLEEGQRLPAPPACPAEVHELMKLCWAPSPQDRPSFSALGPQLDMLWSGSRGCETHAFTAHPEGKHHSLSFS

| IC50 [1] | IC50 | SMILES |
| --- | --- | --- |
| 1410 nM |  | O=C(N[C@@H](CC1CCCCC1)[C@@H](O)[C@@H](O)C1CC1)c1c[nH]c2ncc(C3CC3)nc12 [Example I-88, 2-Cyclopropyl-5H-pyrrolo[2,3-b]pyrazine-7-carboxylic acid ((1S,2R,3S)-1-cyclohexylmethyl-3-cyclopropyl-2,3-dihydroxy-propyl)-amide] |
| 118 nM |  | CC(C)NC(=O)c1c[nH]c2ncc(Oc3ccc4c(c3)[C@H](NC=O)CC4)nc12 [Example I-301, 2-((R)-3-Formylamino-indan-5-yloxy)-5H-pyrrolo[2,3-b]pyrazine-7-carboxylic acid isopropylamide] |
| 436 nM |  | N#CCCNC(=O)c1c[nH]c2ncc(C3CC3)nc12 [Example I-13, 2-Cyclopropyl-5H-pyrrolo[2,3-b]pyrazine-7-carboxylic acid (2-cyano-ethyl)-amide] |
| 116 nM |  | C[C@H](NC(=O)c1c[nH]c2ncc(C3CC3)nc12)[C@](C)(O)CC1CC1 [Example I-48, 2-Cyclopropyl-5H-pyrrolo[2,3-b]pyrazine-7-carboxylic acid ((1S,2R)-3-cyclopropyl-2-hydroxy-1,2-dimethyl-propyl)-amide] |
| 231 nM |  | CS(=O)(=O)N1CCC(CNC(=O)c2c[nH]c3ncc(C4CC4)nc23)C1 (centres unmarked) [Example I-109, 2-Cyclopropyl-5H-pyrrolo[2,3-b]pyrazine-7-carboxylic acid (1-methanesulfonyl-pyrrolidin-3-ylmethyl)-amide] |
| 20.1 nM |  | C[C@H](NC(=O)c1c[nH]c2ncc(C3CC3)nc12)C1CCCCC1 [Example I-32, 2-Cyclopropyl-5H-pyrrolo[2,3-b]pyrazine-7-carboxylic acid ((S)-1-cyclohexyl-ethyl)-amide] |
| 3.8 nM |  | CC(NC(=O)c1c[nH]c2ncc(C3CC3)nc12)C(C)(C)CO (centres unmarked) [Example I-71, 2-Cyclopropyl-5H-pyrrolo[2,3-b]pyrazine-7-carboxylic acid (3-hydroxy-1,2,2-trimethyl-propyl)-amide] |

Second part, the compound before the results:

| SMILES | IC50 [1] | IC50 |
| --- | --- | --- |
| C[C@H](CO)NC(=O)c1ccc(-c2cnc3[nH]cc(C(=O)N[C@@H](C)C(C)(C)C)c3n2)s1 [Example I-169, 2-[5-((R)-2-Hydroxy-1-methyl-ethylcarbamoyl)-thiophen-2-yl]-5H-pyrrolo[2,3-b]pyrazine-7-carboxylic acid ((S)-1,2,2-trimethyl-propyl)-amide] | 0.29 nM |  |
| Cc1cc(C)nc(Oc2cnc3[nH]cc(C(=O)NC(C)C)c3n2)c1 [Example I-279, 2-(4,6-Dimethyl-pyridin-2-yloxy)-5H-pyrrolo[2,3-b]pyrazine-7-carboxylic acid isopropylamide] | 1110 nM |  |
| C[C@H](NC(=O)c1c[nH]c2ncc(-c3ccc(C(=O)N4CCN(C)CC4)s3)nc12)C(C)(C)C [Example I-161, 2-[5-(4-Methyl-piperazine-1-carbonyl)-thiophen-2-yl]-5H-pyrrolo[2,3-b]pyrazine-7-carboxylic acid ((S)-1,2,2-trimethyl-propyl)-amide] | 0.32 nM |  |
| CC(C)NC(=O)c1c[nH]c2ncc(Oc3ccc4c(c3)C=CC4)nc12 [Example I-302, 2-(1H-Inden-5-yloxy)-5H-pyrrolo[2,3-b]pyrazine-7-carboxylic acid isopropylamide] |  | 157 nM |
| COc1ccccc1Oc1cnc2[nH]cc(C(=O)NC(C)C)c2n1 [Example I-256, 2-(2-Methoxy-phenoxy)-5H-pyrrolo[2,3-b]pyrazine-7-carboxylic acid isopropylamide] | 931 nM |  |
| C[C@H](NC(=O)c1c[nH]c2ncc(-c3ccccn3)nc12)C(C)(C)C [Example I-72, 2-Pyridin-2-yl-5H-pyrrolo[2,3-b]pyrazine-7-carboxylic acid ((S)-1,2,2-trimethyl-propyl)-amide] | 10 nM |  |
| COc1cccc(Oc2cnc3[nH]cc(C(=O)NC(C)C)c3n2)c1 [Example I-229, 2-(3-Methoxy-phenoxy)-5H-pyrrolo[2,3-b]pyrazine-7-carboxylic acid isopropylamide] | 184 nM |  |
